The text on the series:
As used herein, the term “solubility” in regard to water solubility includes cases where the sample completely dissolves in deionized water to form a homogeneous mixture, and cases where the sample is completely emulsified. As used herein, “completely” means that no mass of the sample remains in the deionized water.

The values that follow come from patent US9498387B2, “Absorbent article having bent sections” (UNICHARM CORPORATION, priority 2012, dated 2016).

Take `CCCCCCCCCCCCCC(=O)OCCCCCCCCCCCC` [2-19]: the “Water solubility” value is under 0.05 g. In the case of `CCCCCCCCCCCCOC(=O)CCCCCCCCCCC` [2-18], the “Water solubility” value was under 0.05 g.
